According to ChEMBL document CHEMBL6114980, “Single or double lipid-modified ultra-short antimicrobial peptides for treating infections caused by resistant bacteria” (Eur J Med Chem, 2025):
Values after ≈ are worked out from the molar mass of the structure shown. Active and inactive are the calls of the source. The rule behind the calls is not given here. Peptide text beside a SMILES is read from it. * marks the point of attachment. Lauroyl = CCCCCCCCCCCC(=O)*; Octanoyl = CCCCCCCC(=O)*

What was measured:
Staphylococcus aureus [1] = assay: Synergistic antibacterial activity against Staphylococcus aureus 25923 assessed as fractional inhibitory in presence of streptomycin by checker board assay; format: functional
Lipopolysaccharide (LPS) = assay: Binding affinity to LPS (unknown origin) assessed as reduction in bacterial mortality at 2 times MIC preincubated with LPS for 1 hr followed by bacteria addition for 24 hrs by spectrophotometric analysis
Staphylococcus aureus [2] = assay: Antibacterial activity against methicillin-resistant Staphylococcus aureus ATCC 33591 assessed as reduction in bacterial growth incubated for 18 to 24 hrs by broth microdilution method; format: functional; settings: time 18-24 hrs
Escherichia coli [3] = assay: Antibacterial activity against Escherichia coli assessed as reduction in survival bacterial growth in presence of NaCl measured after 18 to 24 hrs (reference value: 8 microM); format: functional; settings: time 18-24 hrs
Klebsiella pneumoniae [4] = assay: Induction of morphological changes in Klebsiella pneumoniae assessed as cell contraction at 2 times MIC measured after 30 mins by SEM analysis; format: functional, organism-based
Staphylococcus aureus [5] = assay: Antibacterial activity against methicillin resistant Staphylococcus aureus infected in male BALB/c mouse model of skin wound infection assessed as healthy development of hair follicles at 2 mg/kg, ip measured after 10 days post infection; format: functional, organism-based; settings: time 10.0 day
Staphylococcus aureus [6] = assay: Synergistic antibacterial activity against Staphylococcus aureus 25923 assessed as fractional inhibitory in presence of polymyxin B by checker board assay; format: functional
Klebsiella pneumoniae [7] = assay: Induction of morphological changes in Klebsiella pneumoniae assessed as cell aggregation at 2 times MIC measured after 120 mins by SEM analysis; format: functional, organism-based
Staphylococcus aureus [8] = assay: Synergistic antibacterial activity against methicillin-resistant Staphylococcus aureus measured after 18 hrs in presence of cephalothin by absorbance based analysis; format: functional, organism-based
Staphylococcus aureus [9] = assay: Antibacterial activity against methicillin-resistant Staphylococcus aureus 75 assessed as reduction in bacterial growth incubated for 18 to 24 hrs by broth microdilution method; format: functional; settings: time 18-24 hrs
Staphylococcus aureus [10] = assay: Induction of cell membrane disruption in Staphylococcus aureus assessed as PI uptake at 2 to 4 times MIC measured after 120 mins by PI staining based flow cytometry analysis (Rvb =<10 %); format: functional; settings: 2 h
Staphylococcus aureus [11] = assay: Synergistic antibacterial activity against methicillin-resistant Staphylococcus aureus assessed as fractional inhibitory in presence of polymyxin B by checker board assay; format: functional
Staphylococcus aureus [12] = assay: Additive antibacterial activity against Staphylococcus aureus 113 assessed as fractional inhibitory in presence of cephalothin by checker board assay; format: functional
Staphylococcus aureus [13] = assay: Synergistic antibacterial activity against Staphylococcus aureus 25923 measured after 18 hrs in presence of cephalothin by absorbance based analysis; format: functional, organism-based
Staphylococcus aureus [14] = assay: Bactericidal activity against Staphylococcus aureus 25923 assessed as eradication of bacteria at 2 times MIC measured within 1 hr by time-kill assay; format: functional, organism-based
Escherichia coli [15] = assay: Antibacterial activity against Escherichia coli assessed as reduction in survival bacterial growth in presence of FeCl3 measured after 18 to 24 hrs (reference value: 8 microM); format: functional; settings: time 18-24 hrs
Escherichia coli [16] = assay: Antibacterial activity against Escherichia coli ATCC 25922 assessed as reduction in bacterial growth incubated for 18 to 24 hrs by broth microdilution method; format: functional; settings: time 18-24 hrs
Pseudomonas aeruginosa [17] = assay: Antibacterial activity against Pseudomonas aeruginosa ATCC 27853 assessed as reduction in bacterial growth incubated for 18 to 24 hrs by broth microdilution method; format: functional; settings: time 18-24 hrs
Pseudomonas aeruginosa [18] = assay: Antibacterial activity against Pseudomonas aeruginosa 124 assessed as reduction in bacterial growth incubated for 18 to 24 hrs by broth microdilution method; format: functional; settings: time 18-24 hrs
[19] = Acute toxicity in male BALB/c mouse assessed lethal dose administered as ip dose measured for 7 days; format: organism-based; settings: in vivo, time 7 day
Staphylococcus aureus [20] = assay: Antibacterial activity against Staphylococcus aureus 125 assessed as reduction in bacterial growth incubated for 18 to 24 hrs by broth microdilution method; format: functional; settings: time 18-24 hrs
Cell membrane [21] = assay: Induction of inner membrane permeabilization in Escherichia coli at 2 times MIC measured for 135 mins by absorbance based analysis
Staphylococcus aureus [22] = assay: Additive antibacterial activity against methicillin-resistant Staphylococcus aureus assessed as fractional inhibitory in presence of cephalothin by checker board assay; format: functional
Cell membrane [23] = assay: Induction of outer membrane permeabilization in Escherichia coli assessed as increase in fluorescence intensity at 2 to 4 times MIC measured for 10 mins by fluorescence based NPN uptake assay
Klebsiella pneumoniae [24] = assay: Induction of morphological changes in Klebsiella pneumoniae assessed as cell aggregation at 2 times MIC measured after 30 mins by SEM analysis; format: functional, organism-based
[25] = Acute toxicity in male BALB/c mouse assessed effect on edema in kidney at 100 to 130 mg/kg, ip measured after 7 days by H and E staining based analysis; format: organism-based; settings: in vivo, 168 h, dose 100-130 mg/kg, time 7 day
Klebsiella pneumoniae [26] = assay: Antibacterial activity against Klebsiella pneumoniae ATCC 700603 infected in male BALB/c mouse lung infection model assessed as reduction in bacterial load at 5 mg/kg, ip measured after 6 to 36 hrs (reference value: 1.77 10^6CFU/mg); format: functional; settings: time 6-36 hrs
Escherichia coli [27] = assay: Antibacterial activity against Escherichia coli assessed as reduction in survival bacterial growth in presence of <=2 ug/ml chymotrypsin measured after1 hr by absorbance based analysis; format: functional, organism-based; settings: time 1.0 hrs
Staphylococcus aureus [28] = assay: Antibacterial activity against Staphylococcus aureus 794 assessed as reduction in bacterial growth incubated for 18 to 24 hrs by broth microdilution method; format: functional; settings: time 18-24 hrs
Acinetobacter baumannii = assay: Antibacterial activity against Acinetobacter baumannii 5444 assessed as reduction in bacterial growth incubated for 18 to 24 hrs by broth microdilution method; format: functional; settings: time 18-24 hrs
Staphylococcus aureus [29] = assay: Antibacterial activity against methicillin resistant Staphylococcus aureus infected in male BALB/c mouse model of skin wound infection assessed as appearance of intact structure of stratum corneum at 2 mg/kg, ip measured after 10 days post infection; format: functional, organism-based; settings: time 10.0 day
Escherichia coli [30] = assay: Induction of cell membrane disruption in Escherichia coli assessed as PI uptake at 4 times MIC measured after 120 mins by PI staining based flow cytometry analysis (Rvb =<10 %); format: functional; settings: 2 h
Staphylococcus aureus [31] = assay: Induction of morphological changes in Staphylococcus aureus assessed as cell aggregation adhesion at 2 times MIC measured after 120 mins by SEM analysis; format: functional, organism-based
Klebsiella pneumoniae [32] = assay: Induction of morphological changes in Klebsiella pneumoniae assessed as cell adhesion at 2 times MIC measured after 120 mins by SEM analysis; format: functional, organism-based
Klebsiella pneumoniae [33] = assay: Antibacterial activity against Klebsiella pneumoniae ATCC 700603 assessed as reduction in bacterial growth incubated for 18 to 24 hrs by broth microdilution method; format: functional; settings: time 18-24 hrs
Escherichia coli [34] = assay: Antibacterial activity against Escherichia coli 25922 at sub-MIC concentration measured after 15 passages in presence of rifampin; format: functional, organism-based
Staphylococcus aureus [35] = assay: Bactericidal activity against Staphylococcus aureus assessed as bacterial mortality rate at 2 times MIC preincubated with LTA for 1 hr followed by bacteria addition for 24 hrs by spectrophotometric analysis relative to control; format: functional
Escherichia coli [36] = assay: Antibacterial activity against Escherichia coli assessed as reduction in survival bacterial growth by measuring fold change in presence of ZnCl2 measured after 18 to 24 hrs; format: functional; settings: time 18-24 hrs
Staphylococcus aureus [37] = assay: Antibacterial activity against Staphylococcus aureus assessed as reduction in survival bacterial growth in presence of ZnCl2 measured after 18 to 24 hrs (reference value: 8 microM); format: functional; settings: time 18-24 hrs
Staphylococcus aureus [38] = assay: Synergistic antibacterial activity against Staphylococcus aureus 25923 assessed as fractional inhibitory in presence of cephalothin by checker board assay; format: functional

Row | SMILES | fractional inhibitory concentration index (FICI) (Staphylococcus aureus [1]) | Activity (Lipopolysaccharide (LPS)) | MIC (Staphylococcus aureus [2]) [µM] | Activity (Klebsiella pneumoniae [4]) | Activity (Staphylococcus aureus [5]) | fractional inhibitory concentration index (FICI) (Staphylococcus aureus [6]) | Activity (Klebsiella pneumoniae [7]) | Activity (Staphylococcus aureus [8]) | MIC (Staphylococcus aureus [9]) [µM] | Activity (Staphylococcus aureus [10]) [%] | fractional inhibitory concentration index (FICI) (Staphylococcus aureus [11]) | fractional inhibitory concentration index (FICI) (Staphylococcus aureus [12]) | Activity (Staphylococcus aureus [13]) | Activity (Staphylococcus aureus [14]) | MIC (Escherichia coli [15]) [µM] | MIC (Escherichia coli [16]) [µM] | MIC (Pseudomonas aeruginosa [17]) [µM] | MIC (Pseudomonas aeruginosa [18]) [µM] | LD50 at 168 h [19] [mg/kg] | MIC (Staphylococcus aureus [20]) [µM] | other results
1 | CCCCCCCCCCCC(=O)N[C@@H](CCCCN)C(=O)N[C@@H](CCCCN)C(=O)N[C@@H](Cc1c[nH]c2ccccc12)C(=O)N[C@@H](Cc1c[nH]c2ccccc12)C(N)=O (Lauroyl-KKWW-NH2) | 0.187 | Active | 4 (≈ 3.31 µg/mL) | Active | Active | 0.5 | Active; Compound Showed More Pronounced Effect Compared To 30 Mins Incubation Time | Active | 4 (≈ 3.31 µg/mL) | 100 | 0.375 | 0.562 | Active | Active | 8 | 8 (≈ 6.62 µg/mL) | 8 (≈ 6.62 µg/mL) | 8 (≈ 6.62 µg/mL) | 114 | 4 (≈ 3.31 µg/mL) | MIC (Escherichia coli [3]): 8 µM; Activity (Cell membrane [21]): Active; Compound Showed Higher Permeability Than Positive Control 0.1% Tritonx-100; fractional inhibitory concentration index (FICI) (Staphylococcus aureus [22]): 0.75; Activity (Cell membrane [23]): Active; Activity (Klebsiella pneumoniae [24]): Active; Activity [25]: Non-toxic; Activity (Klebsiella pneumoniae [26]): 2.4 10^4CFU/mg; Activity (Escherichia coli [27]): Active; MIC (Staphylococcus aureus [28]): 4 µM (≈ 3.31 µg/mL); MIC (Acinetobacter baumannii): 16 µM (≈ 13.2 µg/mL); Activity (Staphylococcus aureus [29]): Active; Activity (Escherichia coli [30]): 100%; Activity (Staphylococcus aureus [31]): Active; Activity (Klebsiella pneumoniae [32]): Active; Compound Showed More Pronounced Effect Compared To 30 Mins Incubation Time; MIC (Klebsiella pneumoniae [33]): 16 µM (≈ 13.2 µg/mL); Activity (Escherichia coli [34]): Active; Activity (Staphylococcus aureus [35]): >50%; fold change (FC) (Escherichia coli [36]): 2
2 | CCCCCCCC(=O)NCCCC[C@H](NC(=O)CCCCCCC)C(=O)N[C@@H](CCCCN)C(=O)N[C@@H](CCCCN)C(=O)N[C@@H](Cc1c[nH]c2ccccc12)C(=O)N[C@@H](Cc1c[nH]c2ccccc12)C(N)=O (Octanoyl-K(Octanoyl)KKWW-NH2) | 0.312 | Active | 8 (≈ 8.21 µg/mL) | Active | Active | 0.5 | Active; Compound Showed More Pronounced Effect Compared To 30 Mins Incubation Time | Active | 8 (≈ 8.21 µg/mL) | 100 | 0.375 | 0.562 | Active | Active | 8 | 8 (≈ 8.21 µg/mL) | 16 (≈ 16.4 µg/mL) | 8 (≈ 8.21 µg/mL) | 113 | 8 (≈ 8.21 µg/mL) | MIC (Staphylococcus aureus [37]): 8 µM; fractional inhibitory concentration index (FICI) (Staphylococcus aureus [38]): 0.5; Activity (Cell membrane [21]): Active; fractional inhibitory concentration index (FICI) (Staphylococcus aureus [22]): 0.562; Activity (Cell membrane [23]): Active; Activity (Klebsiella pneumoniae [24]): Active; Activity (Klebsiella pneumoniae [26]): 1.66 10^4CFU/mg; Activity (Escherichia coli [27]): Active; MIC (Staphylococcus aureus [28]): 16 µM (≈ 16.4 µg/mL); MIC (Acinetobacter baumannii): 16 µM (≈ 16.4 µg/mL); Activity (Staphylococcus aureus [29]): Active; Activity (Escherichia coli [30]): 100%; Activity (Staphylococcus aureus [31]): Active; Activity (Klebsiella pneumoniae [32]): Active; Compound Showed More Pronounced Effect Compared To 30 Mins Incubation Time; MIC (Klebsiella pneumoniae [33]): 16 µM (≈ 16.4 µg/mL); Activity (Staphylococcus aureus [35]): >50%; fold change (FC) (Escherichia coli [36]): 2
